From PubChem BioAssay AID272 (DTP/NCI, 2004)
Values joined by “and” are separate entries in the source; they are usually repeats but may differ in a detail not shown here. Equal values may be shown once. Results filed as inconclusive are left out.

System: Lewis lung carcinoma i.m., BDF1 mice, T/C %
Assay: NCI In Vivo Anticancer Drug Screen. Data for tumor model Lewis Lung Carcinoma (intramuscular) in B6D2F1 (BDF1) mice
Settings: endpoint: mean tumor weight, higher = larger tumour
Outline: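 Antitumour activity is assessed in transplanted-tumour mice. Endpoint is survival or tumour size, normalised to vehicle-dosed controls (T/C).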

CCc1nc(N)nc(N)c1-c1ccc(Cl)cc1
T/C (dose: 2.0 mg/kg/injection, schedule: Q06HX008 (ip), vehicle: Klucel (hydroxypropylcellulose) (HPC)): 104 % of control | T/C (dose: 4.0 mg/kg/injection, schedule: Q01DX009 (ip), vehicle: Klucel (hydroxypropylcellulose) (HPC)): 87 % of control | T/C (dose: 4.0 mg/kg/injection, schedule: Q01DX009 (oral), vehicle: Klucel (hydroxypropylcellulose) (HPC)): 37 % of control | T/C (dose: 4.0 mg/kg/injection, schedule: Q01DX009 (sc), vehicle: Klucel (hydroxypropylcellulose) (HPC)): 95 % of control | T/C (dose: 4.0 mg/kg/injection, schedule: Q06HX004 (ip), vehicle: Klucel (hydroxypropylcellulose) (HPC)): 82 % of control | T/C (dose: 4.0 mg/kg/injection, schedule: Q06HX012 (ip), vehicle: Klucel (hydroxypropylcellulose) (HPC)): 71 % of control | T/C (dose: 8.0 mg/kg/injection, schedule: Q01DX001 (sc), vehicle: Klucel (hydroxypropylcellulose) (HPC)): 66 % of control | T/C (dose: 8.0 mg/kg/injection, schedule: Q01DX009 (ip), vehicle: Klucel (hydroxypropylcellulose) (HPC)): 67 % of control | T/C (dose: 8.0 mg/kg/injection, schedule: Q01DX009 (oral), vehicle: Klucel (hydroxypropylcellulose) (HPC)): 31 % of control | T/C (dose: 8.0 mg/kg/injection, schedule: Q01DX009 (sc), vehicle: Klucel (hydroxypropylcellulose) (HPC)): 76 % of control | T/C (dose: 8.0 mg/kg/injection, schedule: Q04DX003 (ip), vehicle: Klucel (hydroxypropylcellulose) (HPC)): 92 % of control | T/C (dose: 8.0 mg/kg/injection, schedule: Q06HX004 (ip), vehicle: Klucel (hydroxypropylcellulose) (HPC)): 75 % of control | T/C (dose: 8.0 mg/kg/injection, schedule: Q06HX008 (ip), vehicle: Klucel (hydroxypropylcellulose) (HPC)): 65 % of control and 68 % of control | T/C (dose: 8.0 mg/kg/injection, schedule: Q06HX012 (ip), vehicle: Klucel (hydroxypropylcellulose) (HPC)): 57 % of control | T/C (dose: 8.0 mg/kg/injection, schedule: Q08DX002 (ip), vehicle: Klucel (hydroxypropylcellulose) (HPC)): 85 % of control | T/C (dose: 12.5 mg/kg/injection, schedule: Q01DX011 (ip), vehicle: steriod suspending solution): 65 % of control | T/C (dose: 16.0 mg/kg/injection, schedule: Q01DX001 (ip), vehicle: Klucel (hydroxypropylcellulose) (HPC)): 71 % of control | T/C (dose: 16.0 mg/kg/injection, schedule: Q01DX001 (oral), vehicle: Klucel (hydroxypropylcellulose) (HPC)): 84 % of control | T/C (dose: 16.0 mg/kg/injection, schedule: Q01DX001 (sc), vehicle: Klucel (hydroxypropylcellulose) (HPC)): 75 % of control and 80 % of control | T/C (dose: 16.0 mg/kg/injection, schedule: Q01DX009 (ip), vehicle: Klucel (hydroxypropylcellulose) (HPC)): 83 % of control and 98 % of control | T/C (dose: 16.0 mg/kg/injection, schedule: Q01DX009 (oral), vehicle: Klucel (hydroxypropylcellulose) (HPC)): 38 % of control | T/C (dose: 16.0 mg/kg/injection, schedule: Q01DX009 (sc), vehicle: Klucel (hydroxypropylcellulose) (HPC)): 80 % of control | T/C (dose: 16.0 mg/kg/injection, schedule: Q04DX003 (ip), vehicle: Klucel (hydroxypropylcellulose) (HPC)): 73 % of control and 78 % of control | T/C (dose: 16.0 mg/kg/injection, schedule: Q06HX004 (ip), vehicle: Klucel (hydroxypropylcellulose) (HPC)): 84 % of control | T/C (dose: 16.0 mg/kg/injection, schedule: Q06HX008 (ip), vehicle: Klucel (hydroxypropylcellulose) (HPC)): 58 % of control and 73 % of control | T/C (dose: 16.0 mg/kg/injection, schedule: Q06HX012 (ip), vehicle: Klucel (hydroxypropylcellulose) (HPC)): 56 % of control | T/C (dose: 25.0 mg/kg/injection, schedule: Q01DX011 (ip), vehicle: steriod suspending solution): 57 % of control | T/C (dose: 32.0 mg/kg/injection, schedule: Q01DX001 (ip), vehicle: Klucel (hydroxypropylcellulose) (HPC)): 75 % of control | T/C (dose: 32.0 mg/kg/injection, schedule: Q01DX001 (oral), vehicle: Klucel (hydroxypropylcellulose) (HPC)): 95 % of control | T/C (dose: 32.0 mg/kg/injection, schedule: Q01DX001 (sc), vehicle: Klucel (hydroxypropylcellulose) (HPC)): 85 % of control and 94 % of control | T/C (dose: 32.0 mg/kg/injection, schedule: Q01DX009 (oral), vehicle: Klucel (hydroxypropylcellulose) (HPC)): 32 % of control | T/C (dose: 32.0 mg/kg/injection, schedule: Q01DX009 (sc), vehicle: Klucel (hydroxypropylcellulose) (HPC)): 71 % of control | T/C (dose: 32.0 mg/kg/injection, schedule: Q04DX003 (ip), vehicle: Klucel (hydroxypropylcellulose) (HPC)): 76 % of control and 94 % of control | T/C (dose: 32.0 mg/kg/injection, schedule: Q06HX008 (ip), vehicle: Klucel (hydroxypropylcellulose) (HPC)): 62 % of control | T/C (dose: 32.0 mg/kg/injection, schedule: Q08DX002 (ip), vehicle: Klucel (hydroxypropylcellulose) (HPC)): 74 % of control | T/C (dose: 50.0 mg/kg/injection, schedule: Q01DX011 (ip), vehicle: steriod suspending solution): 50 % of control | T/C (dose: 64.0 mg/kg/injection, schedule: Q01DX001 (ip), vehicle: Klucel (hydroxypropylcellulose) (HPC)): 78 % of control | T/C (dose: 64.0 mg/kg/injection, schedule: Q01DX001 (oral), vehicle: Klucel (hydroxypropylcellulose) (HPC)): 85 % of control | T/C (dose: 64.0 mg/kg/injection, schedule: Q01DX001 (sc), vehicle: Klucel (hydroxypropylcellulose) (HPC)): 78 % of control and 81 % of control
